In US10253039B2, “Inhibitors of bacterial DNA gyrase with efficacy against gram-negative bacteria” (priority 2014, dated 2019):
≈ marks a conversion by molar mass, not a printed value.

Each compound was assayed on E. coli BW25113 (assay: MIC, microdilution in 96-well plates). Conditions: Escherichia coli, BW25113, B: E. coli BW25113; read-out: MIC.
Assay type: cell-based
In short: (§1)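 Each of the 20 strains is tested in LB at a 1:10000 dilution of a growing subculture. Compound is titrated 2-fold in three replicates; a DMSO column serves as vehicle control. After shaking incubation at 37° C. for 16-18 hours, MIC is taken as the lowest clear concentration.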

Compound	MIC
O=S(=O)(N[C@@H]1CCN(Cc2ccc(-c3ccccn3)cc2)C1)c1cccc(OC(F)(F)F)c1 [Compound 48]	> 8 µg/mL
O=S(=O)(N[C@@H]1CCN(Cc2ccc(-n3cccn3)cc2)C1)c1cccc(OC(F)(F)F)c1 [Compound 21]	> 8 µg/mL
N#Cc1cccc(S(=O)(=O)N[C@@H]2CCN(Cc3ccc(OC(F)F)cc3)C2)c1 [Compound 2]	> 8 µg/mL
O=S(=O)(N[C@@H]1CCN(Cc2ccc(OC3CC3)cc2)C1)c1cnc2ccccc2c1 [Compound 95]	> 8 µg/mL
Cc1c(S(=O)(=O)N[C@@H]2CCN(Cc3ccc(-c4ccccc4)cc3)C2)sc2ccc(Cl)cc12 [Compound 82]	> 8 µg/mL
N#Cc1cccc(S(=O)(=O)N[C@@H]2CCN(Cc3ccc4c(c3)OCCO4)C2)c1 [Compound 9]	> 8 µg/mL

These compounds were tested on Edwardsiella tarda (assay: MIC, microdilution in 96-well plates). Conditions: D: Edwardsiella tarda.
Assay type: cell-based
In short: as §1

Compound	MIC
O=S(=O)(N[C@@H]1CCN(Cc2ccc(-c3ccccn3)cc2)C1)c1cccc(OC(F)(F)F)c1 [Compound 48]	> 8 µg/mL
O=S(=O)(N[C@@H]1CCN(Cc2ccc(-n3cccn3)cc2)C1)c1cccc(OC(F)(F)F)c1 [Compound 21]	> 8 µg/mL
N#Cc1cccc(S(=O)(=O)N[C@@H]2CCN(Cc3ccc(OC(F)F)cc3)C2)c1 [Compound 2]	> 8 µg/mL
O=S(=O)(N[C@@H]1CCN(Cc2ccc(OC3CC3)cc2)C1)c1cnc2ccccc2c1 [Compound 95]	> 8 µg/mL
Cc1c(S(=O)(=O)N[C@@H]2CCN(Cc3ccc(-c4ccccc4)cc3)C2)sc2ccc(Cl)cc12 [Compound 82]	> 8 µg/mL
N#Cc1cccc(S(=O)(=O)N[C@@H]2CCN(Cc3ccc4c(c3)OCCO4)C2)c1 [Compound 9]	> 8 µg/mL

Each compound was assayed on E. coli JW5503 (deltolC) (assay: MIC, 20-strain panel). Conditions: Escherichia coli, C: E. coli JW5503 (deltolC).
Assay type: cell-based
In short: as §1

Compound	MIC
O=S(=O)(N[C@@H]1CCN(Cc2ccc(-c3ccccn3)cc2)C1)c1cccc(OC(F)(F)F)c1 [Compound 48]	1 µg/mL (≈ 2.09 µM)
O=S(=O)(N[C@@H]1CCN(Cc2ccc(-n3cccn3)cc2)C1)c1cccc(OC(F)(F)F)c1 [Compound 21]	2 µg/mL (≈ 4.29 µM)
N#Cc1cccc(S(=O)(=O)N[C@@H]2CCN(Cc3ccc(OC(F)F)cc3)C2)c1 [Compound 2]	8 µg/mL (≈ 19.6 µM)
O=S(=O)(N[C@@H]1CCN(Cc2ccc(OC3CC3)cc2)C1)c1cnc2ccccc2c1 [Compound 95]	> 8 µg/mL
Cc1c(S(=O)(=O)N[C@@H]2CCN(Cc3ccc(-c4ccccc4)cc3)C2)sc2ccc(Cl)cc12 [Compound 82]	> 8 µg/mL
N#Cc1cccc(S(=O)(=O)N[C@@H]2CCN(Cc3ccc4c(c3)OCCO4)C2)c1 [Compound 9]	> 8 µg/mL

What follows are compounds tested on E. coli MG1655 (assay: MIC, 20-strain panel). Conditions: Escherichia coli, MG1655, A: E. coli MG1655; read-out: MIC.
Assay type: cell-based
In short: as §1

Compound	MIC
O=S(=O)(N[C@@H]1CCN(Cc2ccc(-c3ccccn3)cc2)C1)c1cccc(OC(F)(F)F)c1 [Compound 48]	> 8 µg/mL
O=S(=O)(N[C@@H]1CCN(Cc2ccc(-n3cccn3)cc2)C1)c1cccc(OC(F)(F)F)c1 [Compound 21]	> 8 µg/mL
N#Cc1cccc(S(=O)(=O)N[C@@H]2CCN(Cc3ccc(OC(F)F)cc3)C2)c1 [Compound 2]	> 8 µg/mL
O=S(=O)(N[C@@H]1CCN(Cc2ccc(OC3CC3)cc2)C1)c1cnc2ccccc2c1 [Compound 95]	> 8 µg/mL
Cc1c(S(=O)(=O)N[C@@H]2CCN(Cc3ccc(-c4ccccc4)cc3)C2)sc2ccc(Cl)cc12 [Compound 82]	> 8 µg/mL
N#Cc1cccc(S(=O)(=O)N[C@@H]2CCN(Cc3ccc4c(c3)OCCO4)C2)c1 [Compound 9]	> 8 µg/mL

Each compound was assayed on Klebsiella pneumoniae subsp. pneumoniae (assay: MIC, 20-strain panel). Conditions: E: Klebsiella pneumoniae subsp. pneumoniae.
Assay type: cell-based
In short: as §1

Compound	MIC
O=S(=O)(N[C@@H]1CCN(Cc2ccc(-c3ccccn3)cc2)C1)c1cccc(OC(F)(F)F)c1 [Compound 48]	> 8 µg/mL
O=S(=O)(N[C@@H]1CCN(Cc2ccc(-n3cccn3)cc2)C1)c1cccc(OC(F)(F)F)c1 [Compound 21]	> 8 µg/mL
N#Cc1cccc(S(=O)(=O)N[C@@H]2CCN(Cc3ccc(OC(F)F)cc3)C2)c1 [Compound 2]	> 8 µg/mL
O=S(=O)(N[C@@H]1CCN(Cc2ccc(OC3CC3)cc2)C1)c1cnc2ccccc2c1 [Compound 95]	> 8 µg/mL
Cc1c(S(=O)(=O)N[C@@H]2CCN(Cc3ccc(-c4ccccc4)cc3)C2)sc2ccc(Cl)cc12 [Compound 82]	> 8 µg/mL
N#Cc1cccc(S(=O)(=O)N[C@@H]2CCN(Cc3ccc4c(c3)OCCO4)C2)c1 [Compound 9]	> 8 µg/mL

What follows are compounds tested on Salmonella enterica subsp. enterica typhimurium (assay: MIC, 20-strain panel). Conditions: F: Salmonella enterica subsp. enterica Typhimurium.
Assay type: cell-based
In short: as §1

Compound	MIC
O=S(=O)(N[C@@H]1CCN(Cc2ccc(-c3ccccn3)cc2)C1)c1cccc(OC(F)(F)F)c1 [Compound 48]	> 8 µg/mL
O=S(=O)(N[C@@H]1CCN(Cc2ccc(-n3cccn3)cc2)C1)c1cccc(OC(F)(F)F)c1 [Compound 21]	> 8 µg/mL
N#Cc1cccc(S(=O)(=O)N[C@@H]2CCN(Cc3ccc(OC(F)F)cc3)C2)c1 [Compound 2]	> 8 µg/mL
O=S(=O)(N[C@@H]1CCN(Cc2ccc(OC3CC3)cc2)C1)c1cnc2ccccc2c1 [Compound 95]	> 8 µg/mL
Cc1c(S(=O)(=O)N[C@@H]2CCN(Cc3ccc(-c4ccccc4)cc3)C2)sc2ccc(Cl)cc12 [Compound 82]	> 8 µg/mL
N#Cc1cccc(S(=O)(=O)N[C@@H]2CCN(Cc3ccc4c(c3)OCCO4)C2)c1 [Compound 9]	> 8 µg/mL

What follows are compounds tested on Shigella flexneri (assay: MIC, 20-strain panel). Conditions: G: Shigella flexneri.
Assay type: cell-based
In short: as §1

Compound	MIC
O=S(=O)(N[C@@H]1CCN(Cc2ccc(-c3ccccn3)cc2)C1)c1cccc(OC(F)(F)F)c1 [Compound 48]	> 8 µg/mL
O=S(=O)(N[C@@H]1CCN(Cc2ccc(-n3cccn3)cc2)C1)c1cccc(OC(F)(F)F)c1 [Compound 21]	> 8 µg/mL
N#Cc1cccc(S(=O)(=O)N[C@@H]2CCN(Cc3ccc(OC(F)F)cc3)C2)c1 [Compound 2]	> 8 µg/mL
O=S(=O)(N[C@@H]1CCN(Cc2ccc(OC3CC3)cc2)C1)c1cnc2ccccc2c1 [Compound 95]	> 8 µg/mL
Cc1c(S(=O)(=O)N[C@@H]2CCN(Cc3ccc(-c4ccccc4)cc3)C2)sc2ccc(Cl)cc12 [Compound 82]	> 8 µg/mL
N#Cc1cccc(S(=O)(=O)N[C@@H]2CCN(Cc3ccc4c(c3)OCCO4)C2)c1 [Compound 9]	> 8 µg/mL

Each compound was assayed on Staphylococcus aureus subsp. aureus (assay: MIC, 20-strain panel). Conditions: H: Staphylococcus aureus subsp. aureus, read-out: MIC.
Assay type: cell-based
In short: as §1

Compound	MIC
O=S(=O)(N[C@@H]1CCN(Cc2ccc(-c3ccccn3)cc2)C1)c1cccc(OC(F)(F)F)c1 [Compound 48]	> 8 µg/mL
O=S(=O)(N[C@@H]1CCN(Cc2ccc(-n3cccn3)cc2)C1)c1cccc(OC(F)(F)F)c1 [Compound 21]	8 µg/mL (≈ 17.1 µM)
N#Cc1cccc(S(=O)(=O)N[C@@H]2CCN(Cc3ccc(OC(F)F)cc3)C2)c1 [Compound 2]	> 8 µg/mL
O=S(=O)(N[C@@H]1CCN(Cc2ccc(OC3CC3)cc2)C1)c1cnc2ccccc2c1 [Compound 95]	> 8 µg/mL
Cc1c(S(=O)(=O)N[C@@H]2CCN(Cc3ccc(-c4ccccc4)cc3)C2)sc2ccc(Cl)cc12 [Compound 82]	> 8 µg/mL
N#Cc1cccc(S(=O)(=O)N[C@@H]2CCN(Cc3ccc4c(c3)OCCO4)C2)c1 [Compound 9]	> 8 µg/mL

These compounds were tested on Staphylococcus epidermidis (assay: MIC, 20-strain panel). Conditions: not given.
Assay type: cell-based
In short: as §1

Compound	MIC
O=S(=O)(N[C@@H]1CCN(Cc2ccc(-c3ccccn3)cc2)C1)c1cccc(OC(F)(F)F)c1 [Compound 48]	> 8 µg/mL
O=S(=O)(N[C@@H]1CCN(Cc2ccc(-n3cccn3)cc2)C1)c1cccc(OC(F)(F)F)c1 [Compound 21]	2 µg/mL (≈ 4.29 µM)
N#Cc1cccc(S(=O)(=O)N[C@@H]2CCN(Cc3ccc(OC(F)F)cc3)C2)c1 [Compound 2]	> 8 µg/mL
O=S(=O)(N[C@@H]1CCN(Cc2ccc(OC3CC3)cc2)C1)c1cnc2ccccc2c1 [Compound 95]	> 8 µg/mL
Cc1c(S(=O)(=O)N[C@@H]2CCN(Cc3ccc(-c4ccccc4)cc3)C2)sc2ccc(Cl)cc12 [Compound 82]	> 8 µg/mL
N#Cc1cccc(S(=O)(=O)N[C@@H]2CCN(Cc3ccc4c(c3)OCCO4)C2)c1 [Compound 9]	> 8 µg/mL

Each compound was assayed on Staphylococcus saprophyticus subsp. saprophyticus (assay: MIC, 20-strain panel). Conditions: not given.
Assay type: cell-based
In short: as §1

Compound	MIC
O=S(=O)(N[C@@H]1CCN(Cc2ccc(-c3ccccn3)cc2)C1)c1cccc(OC(F)(F)F)c1 [Compound 48]	> 8 µg/mL
O=S(=O)(N[C@@H]1CCN(Cc2ccc(-n3cccn3)cc2)C1)c1cccc(OC(F)(F)F)c1 [Compound 21]	> 8 µg/mL
N#Cc1cccc(S(=O)(=O)N[C@@H]2CCN(Cc3ccc(OC(F)F)cc3)C2)c1 [Compound 2]	> 8 µg/mL
O=S(=O)(N[C@@H]1CCN(Cc2ccc(OC3CC3)cc2)C1)c1cnc2ccccc2c1 [Compound 95]	> 8 µg/mL
Cc1c(S(=O)(=O)N[C@@H]2CCN(Cc3ccc(-c4ccccc4)cc3)C2)sc2ccc(Cl)cc12 [Compound 82]	> 8 µg/mL
N#Cc1cccc(S(=O)(=O)N[C@@H]2CCN(Cc3ccc4c(c3)OCCO4)C2)c1 [Compound 9]	> 8 µg/mL

Each compound was assayed on Streptococcus agalactiae (assay: MIC, 20-strain panel). Conditions: not given.
Assay type: cell-based
In short: as §1

Compound	MIC
O=S(=O)(N[C@@H]1CCN(Cc2ccc(-c3ccccn3)cc2)C1)c1cccc(OC(F)(F)F)c1 [Compound 48]	> 8 µg/mL
O=S(=O)(N[C@@H]1CCN(Cc2ccc(-n3cccn3)cc2)C1)c1cccc(OC(F)(F)F)c1 [Compound 21]	> 8 µg/mL
N#Cc1cccc(S(=O)(=O)N[C@@H]2CCN(Cc3ccc(OC(F)F)cc3)C2)c1 [Compound 2]	> 8 µg/mL
O=S(=O)(N[C@@H]1CCN(Cc2ccc(OC3CC3)cc2)C1)c1cnc2ccccc2c1 [Compound 95]	> 8 µg/mL
Cc1c(S(=O)(=O)N[C@@H]2CCN(Cc3ccc(-c4ccccc4)cc3)C2)sc2ccc(Cl)cc12 [Compound 82]	> 8 µg/mL
N#Cc1cccc(S(=O)(=O)N[C@@H]2CCN(Cc3ccc4c(c3)OCCO4)C2)c1 [Compound 9]	> 8 µg/mL

What follows are compounds tested on Streptococcus pyogenes (assay: MIC, 20-strain panel). Conditions: not given.
Assay type: cell-based
In short: as §1

Compound	MIC
O=S(=O)(N[C@@H]1CCN(Cc2ccc(-c3ccccn3)cc2)C1)c1cccc(OC(F)(F)F)c1 [Compound 48]	> 8 µg/mL
O=S(=O)(N[C@@H]1CCN(Cc2ccc(-n3cccn3)cc2)C1)c1cccc(OC(F)(F)F)c1 [Compound 21]	> 8 µg/mL
N#Cc1cccc(S(=O)(=O)N[C@@H]2CCN(Cc3ccc(OC(F)F)cc3)C2)c1 [Compound 2]	> 8 µg/mL
O=S(=O)(N[C@@H]1CCN(Cc2ccc(OC3CC3)cc2)C1)c1cnc2ccccc2c1 [Compound 95]	> 8 µg/mL
Cc1c(S(=O)(=O)N[C@@H]2CCN(Cc3ccc(-c4ccccc4)cc3)C2)sc2ccc(Cl)cc12 [Compound 82]	> 8 µg/mL
N#Cc1cccc(S(=O)(=O)N[C@@H]2CCN(Cc3ccc4c(c3)OCCO4)C2)c1 [Compound 9]	> 8 µg/mL
